Results: patent US20240277682A1, “PHARMACEUTICAL HYDRONIDONE FORMULATIONS FOR DISEASES” (Gyre Therapeutics, Inc., priority 2021, published 2024)

Assay: In vitro drug-drug interaction with Entecavir and Lamivudine in human liver microsomes
Conditions: each 1.5 mM, P>0.05
Method: Entecavir and Lamivudine, were used concomitantly with Hydronidone, or individually, in the in vitro drug interaction experiments, in respective concentrations of each of 1.5 mM.

## Nc1ccn([C@@H]2CS[C@H](CO)O2)c(=O)n1 [lamivudine, reference compound]
  drug interactions with Hydronidone (residual drug concentrations, individual vs combined medication groups): do not exhibit drug interactions with Hydronidone
